For assay [1], the system named is wild-type and GABAB receptor knock-out mice. In words: Temperature recording (hypothermia) in mice. To be noted: 500 mg/kg i.p.; wild-type or GABAB knock-out mice. The class given is in vivo. The method, then:
Mice were pre-treated with saline injections (0.9% saline) i.p. for 4 days prior to the experiment to minimize stress on the day of the experiment. Experiments were conducted in a quiet room, in which mice were left undisturbed for at least two hrs prior to the experiment. After the i.p. injections, mice were left in their home cages for two hrs, had core body temperature recorded, and were then euthanized. The core body temperature was measured rectally by a thermometer (model DM 852; ELLAB Instruments; Copenhagen, Denmark) via a lubricated thermistor probe (model PRA-22002-A, 2.2 mm diameter; ELLAB Instruments). Mice were held at the base of the tail and measured until a stable temperature measurement was obtained.
By contrast, compound A had no effect on hypothermia in either wild-type or knock-out mice.

The subject of assay [2] is photothrombotic focal ischemia in C57BL/6J mice. In words: Photothrombotic mouse model of focal ischemia, infarct volume. The class given is in vivo. As to conditions: for infarct volume: saline 9.38. The method, then: All procedures were performed in accordance with the guidelines on the care and use of laboratory animals set out by the University of Otago, Animal Research Committee and the Guide for Care and Use of Laboratory Animals (NIH Publication No. 85-23, 1996). All in vivo studies were approved by the University of Otago Animal Ethics Committee and are reported according to the ARRIVE (Animal Research: Reporting In Vivo Experiments) guidelines. The photochemical cortical lesion model resembles situations of acute brain injury related clinically to stroke and traumatic brain injury (TBI). Focal ischemia was induced by photothrombosis in male C57BL/6J mice (8-10 weeks) weighing ˜23-30 g as previously described (Clarkson et al., 2010). Under anesthesia with isoflurane (2% to 2.5% in O2) mice were placed in a stereotactic apparatus, the skull exposed through a midline incision, cleared of connective tissue and dried. A cold light source (KL1500 LCD, Zeiss, Auckland, New Zealand) attached to a 40× objective providing a 2-mm diameter illumination was positioned 1.5 mm lateral from bregma. Then, 0.2 ml of Rose Bengal (Sigma-Aldrich, Auckland, New Zealand; 10 mg/ml in normal saline) was administered i.p. After 5 min, the brain was illuminated through the exposed intact skull for 15 min, while keeping body temperature at 37.0±0.3° C. degrees using a heating pad (Harvard apparatus, Holliston, MA, USA). The skin was glued and animals left in a cage placed on a heating pad during the wake-up phase. Mice were housed under a 12-hr light/dark cycle with ad libitum access to food and water. Further, the mice were monitored and weighed on a daily basis.
For in vivo studies, all compounds were dissolved in a mixture of sterile saline and H2O to obtain isotonicity (0.9%) and administered as 10 mg/ml and 10 μl of solution per gram mouse body weight. The injection of compound (i.p.) was performed 30 min, 3, 6 or 12 hrs after induction of the photothrombotic stroke. The vehicle groups received a corresponding volume of saline (0.9%) at the same time points (30 min, 3, 6 or 12 hrs).
For quantification of the infarcted area, animals were perfused with saline and then with 4% paraformaldehyde (PFA) and the brain dissected out and submerged in 4% PFA for post-fixing overnight. Then the brains were moved to 30% sucrose solution and kept at 4° C. until processing. Brains were cut in 30 μm sections, free-floating in anti-freeze media. Sections were mounted, stained for cresyl violet and the infarct volumes determined by measuring every 6th section through the entire infarct as described in Lie et al (2017). All analyses were performed by an observer blinded to the treatment groups. Brains from the pMCAO studies were flash-frozen in CO2 (gas) and processed into six parallel series of sections (30 μm). Separate series were collected on glass slides and used for infarct size analysis or in Eppendorf tubes and used for qPCR. The glass slides were stored at −80° C. until further processing, and then Cresyl-Violet stained and quantified as described for the photothrombotic photochemical method.

In the next assay the test system is MCP-1, IL-6 and IL-1a. As to the kind of experiment: Quantification of cytokines in plasma after photothrombotic focal ischemia. The class given is in vivo, mice. To be noted: 4 hrs after focal ischemia. The method, then: Detection of MCP-1 (monocyte chemotactant protein-1), IL-6 (interleukin-6) and IL-1a (interleukin-1a) was performed using a LEGENDplex assay kit according to the manufacturers' instructions (BioPlex, BioLegend, San Diego, CA, USA).
To evaluate the inflammatory response at early time points, blood samples were collected 4 hrs after induction of a focal ischemic event.

Assay [3] has as its system permanent middle cerebral artery occlusion in C57BL/6J mice. In words: pMCAO model, behavioural assessment (rotarod, grip strength, Hargreaves). The class given is in vivo. To be noted: 175 mg/kg 30 min after pMCAO. The method, then:
To assess sensory-motor impairment, animals were tested in the rotarod, grip strength and Hargreaves tests 2-3 days post-stroke.
The rotarod (LE 8200, Panlab) measures motor performance in rodents by assessing the time during which the animal remains on a rotating rod. The rod rotation accelerates from 0 to 40 rounds per min (rpm) over a time period of 5 min 48 hrs post-stroke, mice were tested in four repeating trials with a 20 min interval (resting time). Prior to surgery, mice were pretrained to stay on the rod for 30 s at 4 rpm. The grip strength meter (BIO-GT-3, BIOSEB) allowed the study of neuromuscular functions in mice by determining the maximum force that is required to make the mouse release its grip.
The mouse is allowed to grasp a metal grid and then pulled backwards in the horizontal plane. The force applied to the grid is recorded as the peak tension. Individual (right and left) and total (both) front paw grip strength was measured before (baseline) and 3 days after pMCAO. Each mouse was tested in five sequential trials and the highest grip strength was recorded as the score. Thermal hyperalgesia (hind paw withdrawal from a normally innocuous heat source) was tested with a Hargreaves test setup. […] The lowest and highest reflex latency scores were discarded and the average for left and right was calculated and plotted.
Compound A (175 mg/kg) was administered to mice 30 min after induction of a focal stroke via a permanent occlusion of the middle cerebral artery and compared to saline-treated animals and both motor- and sensory impairment was investigated using rotarod, grip strength and Hargreaves tests.

Assay [4] concerns proton-coupled transporters (MCTs) endogenously present in tsA201 cells. As to the kind of experiment: MCT-mediated uptake in tsA201 cells (BCECF pH-sensitive dye). The class given is cell-based. To be noted: 2 min, read-out: EC50, concentration-dependent decrease in intracellular pH.
Protocol: Uptake was measured using the cell-permeable pH-sensitive dye 2′,7′-Bis(2-carboxyethyl)-5(6)-carboxyfluorescein acetoxymethyl ester (BCECF-AM) (Molecular Probes), utilizing the endogenous expression of MCTs in tsA201 cells. The day before the assay, cells were plated (50,000 cells/well) in black poly-D-lysin-coated 96-well plates with clear bottom (VWR, Radnor, PA, USA). […] Cells were then washed twice with 100 μl buffer and the cell plate assayed at 37° C. in a FlexStation 3 reader (Molecular Devices).
Cells (tsA201; related to HEK293-T) known to express MCTs were grown in 96-well plates and exposed to compounds and pH-decreased measured for 2 min.
The target of the next assay is T1, GABAB receptor (Rattus norvegicus, UniProt Q9Z0U4).
T1 construct: using crude synaptic membranes prepared from rat cortex; from tissue; host or cells: rat cortex, crude synaptic membranes
T1 sequence (Q9Z0U4 17-960 limits assumed): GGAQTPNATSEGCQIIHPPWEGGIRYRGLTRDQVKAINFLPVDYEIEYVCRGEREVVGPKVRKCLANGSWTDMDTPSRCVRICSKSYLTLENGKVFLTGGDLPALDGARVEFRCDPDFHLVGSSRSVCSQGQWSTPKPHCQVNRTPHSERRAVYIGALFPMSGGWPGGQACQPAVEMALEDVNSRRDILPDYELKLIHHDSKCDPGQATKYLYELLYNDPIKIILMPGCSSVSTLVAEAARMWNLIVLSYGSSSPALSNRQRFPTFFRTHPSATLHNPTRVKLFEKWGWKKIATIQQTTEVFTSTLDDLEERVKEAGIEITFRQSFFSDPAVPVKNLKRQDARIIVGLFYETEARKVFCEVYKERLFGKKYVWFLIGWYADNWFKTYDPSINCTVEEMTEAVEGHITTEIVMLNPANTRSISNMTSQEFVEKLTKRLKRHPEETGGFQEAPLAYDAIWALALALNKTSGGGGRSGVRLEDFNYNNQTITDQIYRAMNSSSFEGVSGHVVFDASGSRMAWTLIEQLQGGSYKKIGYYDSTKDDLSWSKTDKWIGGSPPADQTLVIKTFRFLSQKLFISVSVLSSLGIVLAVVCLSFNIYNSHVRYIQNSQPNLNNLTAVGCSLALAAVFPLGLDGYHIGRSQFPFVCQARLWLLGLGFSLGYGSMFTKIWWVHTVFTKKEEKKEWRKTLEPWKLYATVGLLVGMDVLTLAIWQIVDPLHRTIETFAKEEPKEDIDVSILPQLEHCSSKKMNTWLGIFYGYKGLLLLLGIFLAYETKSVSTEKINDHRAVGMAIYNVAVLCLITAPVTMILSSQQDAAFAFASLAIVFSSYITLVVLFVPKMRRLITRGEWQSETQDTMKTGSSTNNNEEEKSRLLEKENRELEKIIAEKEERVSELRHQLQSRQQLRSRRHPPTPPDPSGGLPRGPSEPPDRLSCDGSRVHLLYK
T1 sequence (O88871 41-940 partner): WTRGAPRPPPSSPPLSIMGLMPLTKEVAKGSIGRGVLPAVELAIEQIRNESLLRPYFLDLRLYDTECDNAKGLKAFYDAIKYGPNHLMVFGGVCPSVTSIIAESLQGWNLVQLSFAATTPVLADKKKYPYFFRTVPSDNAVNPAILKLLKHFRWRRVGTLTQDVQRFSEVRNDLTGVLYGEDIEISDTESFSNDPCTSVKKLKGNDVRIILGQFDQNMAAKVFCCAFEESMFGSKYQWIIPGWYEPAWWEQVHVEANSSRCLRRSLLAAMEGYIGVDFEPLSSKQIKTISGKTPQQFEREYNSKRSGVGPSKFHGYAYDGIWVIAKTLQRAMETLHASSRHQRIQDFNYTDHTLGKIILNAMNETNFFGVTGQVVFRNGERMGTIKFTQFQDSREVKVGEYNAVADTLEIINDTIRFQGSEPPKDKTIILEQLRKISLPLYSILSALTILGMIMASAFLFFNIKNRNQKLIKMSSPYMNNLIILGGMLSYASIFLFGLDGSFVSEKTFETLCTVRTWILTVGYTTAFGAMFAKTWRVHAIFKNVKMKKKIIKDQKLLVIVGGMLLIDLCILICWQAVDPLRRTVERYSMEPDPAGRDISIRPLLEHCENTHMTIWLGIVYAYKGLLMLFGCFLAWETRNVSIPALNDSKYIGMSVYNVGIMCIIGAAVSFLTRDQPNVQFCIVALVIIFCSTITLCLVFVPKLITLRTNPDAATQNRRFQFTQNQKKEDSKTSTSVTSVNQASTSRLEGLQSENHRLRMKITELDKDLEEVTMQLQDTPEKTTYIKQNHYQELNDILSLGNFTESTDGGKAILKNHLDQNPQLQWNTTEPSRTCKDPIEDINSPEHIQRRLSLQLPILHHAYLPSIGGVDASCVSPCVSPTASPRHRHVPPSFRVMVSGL
To be noted: cited from earlier work.

[5] abbreviates: 175 mg/kg i.p. 30 min after stroke, day 3.

Molecules are shown by their SMILES.

The text below walks through data of patent US12077495B2 (priority 2018, dated 2024).

For `O=C(O)C1=CC(O)CC1` (stereo not drawn) [Compound A, 3-hydroxycyclopent-1-enecarboxylic acid], in assay [1], the “effect on body temperature (hypothermia)” value is “no effect”. Further, the infarct volume worked out at 8.95 mm^3 in assay [2] (17.5 mg/kg i.p. 30 min after stroke, day 3, not significant) and 6.56 mm^3 in assay [2] (setting [5]). In addition, the “decrease of infarct size vs saline” value in assay [2] (90 mg/kg 3 hrs after stroke) is listed as 51%; in assay [2] (175 mg/kg i.p. 3, 6 or 12 hrs after stroke) it was 33-43%. Moreover, the infarct size in assay [2] (90 mg/kg 3 hrs after stroke, saline 5.55) was found to be 2.68 mm^3; in assay [2] (175 mg/kg i.p. 3 hrs after stroke, saline 5.51), 3.12 mm^3; in assay [2] (175 mg/kg i.p. 6 hrs after stroke, saline 5.51), 3.68 mm^3; in assay [2] (175 mg/kg i.p. 12 hrs after stroke, saline 5.51) it was 3.58 mm^3. Also, in assay [2] (setting [5]), the “reduction of infarct volume vs saline” value was 30%. Further, the MCP-1 plasma levels result in the assay on MCP-1, IL-6 and IL-1a was “tendency towards a decrease”. Further, in the assay on MCP-1, IL-6 and IL-1a (vs saline), the IL-1a plasma levels result is on record as “did not significantly affect”. Further, in the assay on MCP-1, IL-6 and IL-1a (vs saline), the IL-6 plasma levels result is given as “significantly lowered”. In addition, the “Hargreaves test, increased response time in affected forelimb” value in assay [3] is given as “not evident”. Further, the “rotarod test, learning” value in assay [3] (48 hrs post-stroke, T1 to T2) is on record as “steeper learning curve”. Further, the “grip strength deficit in affected fore limb” value in assay [3] (three days after stroke) is “did not demonstrate any deficit”. Moreover, the EC50 in assay [4] is 8.2 mM. Moreover, on GABAB receptor, the “affinity for the GABAB binding site” value is recorded as “does not display any affinity”.
